Experimental data: US20240226343A1, “NEUROPEPTIDE Y1 RECEPTOR (NPY1R) TARGETED THERAPEUTICS AND USES THEREOF” (RADIONETICS ONCOLOGY, INC., priority 2022, published 2024)
pKi: −log10 of the molar value.

Target: T1, hNPY1R (Homo sapiens, UniProt P25929)
T1 construct: SK-N-MC cells endogenously expressing the NPY1R receptor; endogenous in cells; host or cells: SK-N-MC cells (crude membrane fractions)
T1 sequence (P25929 1-384): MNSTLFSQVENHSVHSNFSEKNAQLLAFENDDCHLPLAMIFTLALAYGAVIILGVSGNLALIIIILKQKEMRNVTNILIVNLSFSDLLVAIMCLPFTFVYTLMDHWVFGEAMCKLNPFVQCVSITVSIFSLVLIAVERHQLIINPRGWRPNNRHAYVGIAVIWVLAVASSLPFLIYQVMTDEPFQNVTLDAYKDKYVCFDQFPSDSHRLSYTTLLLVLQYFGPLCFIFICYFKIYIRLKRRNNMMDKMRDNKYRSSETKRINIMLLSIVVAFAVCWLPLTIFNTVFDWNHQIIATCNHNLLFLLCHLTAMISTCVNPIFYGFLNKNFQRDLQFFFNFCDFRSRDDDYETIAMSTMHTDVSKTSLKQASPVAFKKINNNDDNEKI
Assay: NPY1R binding assay: SK-N-MC membranes, [125I]-Peptide YY (human) competition
Conditions: data obtained after 60 minutes at 37° C.; SK-N-MC membranes; [125I]-Peptide YY 0.05 nM; read-out: hNPY1R binding Ki* †

| SMILES | pKi |
| --- | --- |
| CCC(=O)NCCNC(=O)/N=C(/N)NCCC[C@@H](NC(=O)C(c1ccccc1)c1cccc(OCCCCNC(=O)CCOCCNC(=O)CN2CCN(CC(=O)O)CCN(CC(=O)O)CCN(CC(=O)O)CC2)c1)C(=O)NCc1ccc(O)cc1 (single isomer, unassigned) [Compound 108B] | > 8.00 |
| CCC(=O)NCCNC(=O)/N=C(/N)NCCC[C@@H](NC(=O)C(c1ccccc1)c1cccc(OCCCCNC(=O)CCC(=O)N(CC(=O)O)C2CCN(C(=O)CN3CCN(CC(=O)O)CCN(CC(=O)O)CCN(CC(=O)O)CC3)CC2)c1)C(=O)NCc1ccc(O)cc1 (single isomer, unassigned) [Compound 117B] | > 8.00 |

Same assay, conditions: data obtained after 120 minutes at rt; SK-N-MC membranes; [125I]-Peptide YY; read-out: hNPY.R binding Ki* ††

| SMILES | pKi |
| --- | --- |
| CCC(=O)NCCNC(=O)/N=C(/N)NCCC[C@@H](NC(=O)C(c1ccccc1)c1cccc(OCCCCNC(=O)CCCCCNC(=O)CN2CCN(CC(=O)O)CCN(CC(=O)O)CCN(CC(=O)O)CC2)c1)C(=O)NCc1c(F)cc(O)cc1F (single isomer, unassigned) [Compound 161A] | > 8.00 |
| CCC(=O)NCCNC(=O)/N=C(/N)NCCC[C@@H](NC(=O)C(c1ccccc1)c1ccc(NCCCNC(=O)[C@H](N)CCC(=O)NCCN(C)CCNC(=O)CN2CCN(CC(=O)O)CCN(CC(=O)O)CCN(CC(=O)O)CC2)cc1)C(=O)NCc1ccc(O)cc1 (single isomer, unassigned) [Compound 145A] | > 8.00 |
| CCC(=O)NCCNC(=O)/N=C(/N)NCCC[C@@H](NC(=O)C(c1ccccc1)c1cccc(OCCCCNC(=O)CCCCCNC(=O)CN2CCN(CC(=O)O)CCN(CC(=O)O)CCN(CC(=O)O)CC2)c1)C(=O)NCc1ccc(O)cc1 (single isomer, unassigned) [Compound 140A] | > 8.00 |
| CCNC(=O)/N=C(/N)NCCC[C@@H](NC(=O)C(c1ccccc1)c1cccc(OCCCCNC(=O)[C@@H](Cc2ccc(-c3ccccc3)cc2)NC(=O)[C@@H](CN)NC(=O)CN2CCN(CC(=O)O)CCN(CC(=O)O)CCN(CC(=O)O)CC2)c1)C(=O)NCc1ccc(O)cc1 (single isomer, unassigned) [Compound 148A] | > 8.00 |
| N=C(N)NCCC[C@@H](NC(=O)[C@@H](c1ccccc1)c1cccc(OCCCCNC(=O)[C@H](N)CCCCNC(=O)CN2CCN(CC(=O)O)CCN(CC(=O)O)CCN(CC(=O)O)CC2)c1)C(=O)NCc1ccc(O)cc1 [Compound 138, 2,2′,2″-(10-(2-(((R)-5-amino-6-((4-(3-((S)-2-(((R)-5-guanidino-1-((4-hydroxybenzyl)amino)-1-oxopentan-2-yl)amino)-2-oxo-1-phenylethyl)phenoxy)butyl)amino)-6-oxohexyl)amino)-2-oxoethyl)-1,4,7,10-tetraazacyclododecane-1,4,7-triyl)triacetic acid] | 7.00 to 8.00 |
| CCC(=O)NCCNC(=O)/N=C(/N)NCCC[C@@H](NC(=O)C(c1ccccc1)c1cccc(NCCCNC(=O)CCOCCNC(=O)CN2CCN(CC(=O)O)CCN(CC(=O)O)CCN(CC(=O)O)CC2)c1)C(=O)NCc1ccc(O)cc1 (single isomer, unassigned) [Compound 121B] | > 8.00 |
| CCC(=O)NCCNC(=O)/N=C(/N)NCCC[C@@H](NC(=O)C(c1ccccc1)c1cccc(OCCCCNc2c(NCCNC(=O)[C@@H](CN)NC(=O)CN3CCN(CC(=O)O)CCN(CC(=O)O)CCN(CC(=O)O)CC3)c(=O)c2=O)c1)C(=O)NCc1ccc(O)cc1 (single isomer, unassigned) [Compound 115A] | > 8.00 |
| CCC(=O)NCCNC(=O)/N=C(/N)NCCC[C@@H](NC(=O)C(c1ccccc1)c1cccc(OCCCCNc2c(NCCNC(=O)[C@@H](CCCCN)NC(=O)CN3CCN(CC(=O)O)CCN(CC(=O)O)CCN(CC(=O)O)CC3)c(=O)c2=O)c1)C(=O)NCc1ccc(O)cc1 (stereo in doubt) [Compound 116B-In, indium (III) 2,2′,2″-(10-(2-((6-amino-1-((2-((2-((4-(3-((R,Z)-9-amino-4-((4-hydroxybenzyl)carbamoyl)-2,11,16-trioxo-1-phenyl-3,8,10,12,15-pentaazaoctadec-9-en-1-yl)phenoxy)butyl)amino)-3,4-dioxocyclobut-1-en-1-yl)amino)ethyl)amino)-1-oxohexan-2-yl)amino)-2-oxoethyl)-1,4,7,10-tetraazacyclododecane-1,4,7-triyl)triacetate] | > 8.00 |
| CCC(=O)NCCNC(=O)/N=C(/N)NCCC[C@@H](NC(=O)C(c1ccccc1)c1cccc(OCCCCNC(=O)CCOCCOCCOCCOCCOCCOCCOCCOCCOCCOCCOCCOCCOCCOCCOCCOCCOCCOCCOCCOCCOCCOCCOCCOCCOCCOCCOCCOCCOCCOCCOCCOCCOCCOCCOCCOCCNC(=O)CN2CCN(CC(=O)O)CCN(CC(=O)O)CCN(CC(=O)O)CC2)c1)C(=O)NCc1ccc(O)cc1 (stereo partly drawn) [Compound 126] | 7.00 to 8.00 |
| CCC(=O)NCCNC(=O)/N=C(/N)NCCC[C@@H](NC(=O)C(c1ccccc1)c1cccc(OCCCCNC(=O)CCC(=O)N(CC(=O)O)C2CCN(C(=O)CN3CCN(CC(=O)O)CCN(CC(=O)O)CCN(CC(=O)O)CC3)CC2)c1)C(=O)NCc1ccc(O)cc1 (single isomer, unassigned) [Compound 117B] | > 8.00 |
| CCC(=O)NCCNC(=O)/N=C(/N)NCCC[C@@H](NC(=O)C(c1ccccc1)c1cccc(OCCCCNc2c(NCCNC(=O)[C@@H](CCCCN)NC(=O)CN3CCN(CC(=O)O)CCN(CC(=O)O)CCN(CC(=O)O)CC3)c(=O)c2=O)c1)C(=O)NCc1ccc(O)cc1 (single isomer, unassigned) [Compound 116A] | > 8.00 |
| CCNC(=O)/N=C(/N)NCCC[C@@H](NC(=O)C(c1ccccc1)c1ccc(NCCCNC(=O)[C@H](N)CCCNC(=O)[C@@H](Cc2ccc(-c3ccccc3)cc2)NC(=O)CN2CCN(CC(=O)O)CCN(CC(=O)O)CCN(CC(=O)O)CC2)cc1)C(=O)NCc1ccc(O)cc1 (single isomer, unassigned) [Compound 151] | > 8.00 |
| CCC(=O)NCCNC(=O)/N=C(/N)NCCC[C@@H](NC(=O)C(c1ccccc1)c1cccc(OCCCCNC(=O)NOCCNC(=O)CN2CCN(CC(=O)O)CCN(CC(=O)O)CCN(CC(=O)O)CC2)c1)C(=O)NCc1c(F)cc(O)cc1F (single isomer, unassigned) [Compound 163B] | > 8.00 |
